Reference: patent US20080261994A1, “CYCLOPROPANE COMPOUNDS AND PHARMACEUTICAL USE THEREOF” (Japan Tobacco Inc., priority 2003, published 2008)
Read-outs that look alike come from different tables or passages of the source.

What was measured:
Assay type in all cases: biochemical
Recombinant Human MMP-13 = target: T1, Recombinant Human MMP-13 (Homo sapiens, UniProt P45452); test: MMP-13 inhibitory activity (MMP-13 specific fluorescent substrate with quencher)
T1 construct: purchased R&D systems 511-MM
Method in brief: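 IC50 (μM) derived from % inhibition, normalised to wells without enzyme and without inhibitor, fluorescence read at 325/405 nm. Enzyme and compound preceded addition of the quenched 7-MCA…DPA substrate; Tris-HCl buffer, 25 °C for 1 h, acetic-acid stop.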

MMP-1 = target: T2, MMP-1 (Homo sapiens, UniProt P03956); test: MMP-1 inhibitory action (Type I collagen Activity Measurement kit, FITC-labeled collagen type I)
T2 sequence (P03956 100-469): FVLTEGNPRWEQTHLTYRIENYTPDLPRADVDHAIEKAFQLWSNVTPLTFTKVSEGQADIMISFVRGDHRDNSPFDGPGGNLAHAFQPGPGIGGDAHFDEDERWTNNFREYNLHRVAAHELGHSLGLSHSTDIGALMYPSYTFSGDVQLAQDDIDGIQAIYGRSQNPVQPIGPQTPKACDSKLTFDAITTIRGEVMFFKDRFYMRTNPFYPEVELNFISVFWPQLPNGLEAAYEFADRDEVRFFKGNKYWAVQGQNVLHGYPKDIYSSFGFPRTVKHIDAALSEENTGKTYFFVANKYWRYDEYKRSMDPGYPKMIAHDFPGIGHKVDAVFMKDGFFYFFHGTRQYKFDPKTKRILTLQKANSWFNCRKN

aggrecanase-1 = target: T3, aggrecanase-1 (Homo sapiens, UniProt O75173); test: Aggrecanase-1 inhibitory action (Particle Assay, GAG release from aggrecan-containing polyacrylamide particles)
T3 sequence (O75173 213-837): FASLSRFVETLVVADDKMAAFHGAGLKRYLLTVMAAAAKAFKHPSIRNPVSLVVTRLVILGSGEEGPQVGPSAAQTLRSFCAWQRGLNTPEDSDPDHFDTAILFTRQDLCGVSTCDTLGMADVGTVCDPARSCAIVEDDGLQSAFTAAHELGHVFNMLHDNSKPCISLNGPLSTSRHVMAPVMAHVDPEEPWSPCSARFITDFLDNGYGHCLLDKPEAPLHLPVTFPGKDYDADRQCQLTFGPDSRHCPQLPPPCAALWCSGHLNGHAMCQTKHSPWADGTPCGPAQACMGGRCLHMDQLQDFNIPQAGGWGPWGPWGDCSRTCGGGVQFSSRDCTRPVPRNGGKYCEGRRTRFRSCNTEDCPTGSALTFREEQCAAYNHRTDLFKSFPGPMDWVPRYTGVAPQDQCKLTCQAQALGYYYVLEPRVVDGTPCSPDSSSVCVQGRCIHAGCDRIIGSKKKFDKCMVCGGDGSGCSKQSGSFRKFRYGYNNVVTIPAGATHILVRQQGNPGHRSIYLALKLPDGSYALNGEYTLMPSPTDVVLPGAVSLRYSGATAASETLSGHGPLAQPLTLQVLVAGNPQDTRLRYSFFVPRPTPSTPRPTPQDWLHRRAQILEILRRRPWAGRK
Method in brief: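 Readout was dimethylmethylene blue absorbance (595 nm) of glycosaminoglycan liberated into supernatant, calibrated with whale chondroitin sulfate. Substrate was aggrecan in polyacrylamide particles, digested 15 h at 37° C in Tris-HCl; TC50 (μM) derived from inhibition relative to no-enzyme and no-inhibitor controls.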

[1] = Recombinant Human MMP-13, fluorescent substrate, 25° C. for 1 h, read-out: IC50 MMP13 (Experimental Example 3)
[2] = MMP-1 inhibitory action, FITC-labeled collagen type I, 37° C. for 3 hr, read-out: IC50 MMP1 (Experimental Example 2)
[3] = aggrecanase-1 inhibitory action, read-out: IC50 AG1 (Experimental Example 1)
[4] = Experimental Example 3, read-out: IC50 MMP13
[5] = Experimental Example 2, read-out: IC50 MMP1
[6] = Experimental Example 1, read-out: IC50 AG1

Row | Compound | IC50 (Recombinant Human MMP-13; [1]) | IC50 (MMP-1; [2]) | IC50 (aggrecanase-1; [3]) | IC50 (Recombinant Human MMP-13; [4]) | IC50 (MMP-1; [5]) | IC50 (aggrecanase-1; [6])
1 | O=C(O)C1(NS(=O)(=O)c2cn3cc(-c4ccc(F)cc4)nc3s2)CC1c1ccccc1 (stereo not drawn) [Example 2-491] |  |  |  | < 0.1 µM | ≥ 10 µM | ≥ 1 µM
2 | CC1[C@H](c2ccccc2)[C@]1(NS(=O)(=O)N1CCC(Oc2cccc(Cl)c2)C1)C(=O)O (stereo partly drawn) [Example 2-501] |  |  |  | ≥ 1 µM | ≥ 1 µM | ≥ 1 µM
3 | CCOC(=O)c1cc(-c2ccc(S(=O)(=O)N[C@@]3(C(=O)O)C(C)[C@@H]3c3ccccc3)s2)no1 (stereo partly drawn) [Example 2-555] |  |  |  | < 1 µM | ≥ 1 µM | < 1 µM
4 | COCCN(C)CC1(c2ccccc2)CC1(NS(=O)(=O)c1ccc(-c2cc(C(F)(F)F)on2)s1)C(=O)O (stereo not drawn) [Example 2-336] |  |  |  | ≥ 1 µM | ≥ 10 µM | ≥ 1 µM

Other lines, results leading:

Row | IC50 (Recombinant Human MMP-13; [1]) | IC50 (MMP-1; [2]) | IC50 (aggrecanase-1; [3]) | IC50 (Recombinant Human MMP-13; [4]) | IC50 (MMP-1; [5]) | IC50 (aggrecanase-1; [6]) | Compound
5 | < 0.1 µM | < 1 µM | < 0.1 µM |  |  |  | CCc1cc(-c2ccc(S(=O)(=O)N[C@@]3(C(=O)O)C[C@@H]3c3ccccc3)s2)no1 [Example 2-92]
6 | < 0.1 µM | < 1 µM | < 0.1 µM |  |  |  | O=C(O)[C@]1(NS(=O)(=O)c2ccc(-c3cc(C(F)(F)F)on3)s2)C[C@@H]1c1ccccc1 [Example 2-43]
